Data set [1] concerns subgenomic HCV replicon BM4-5 in Huh7 cells. Description: Antiviral assay on HCV subgenomic replicon, Northern blot of (+)-strand HCV RNA. The class given is cell-based, Hepatitis C Virus. The conditions noted are these: for IC50: read-out: IC50, anti-HCV activity, (+)-RNA; for IC90: read-out: IC90, anti-HCV activity, (+)-RNA; for Selectivity Index (SI), ratio between CC50 and IC50: replicon system. How it is done:
(§1) Antiviral and Cytotoxicity assays for HCV. Huh7 cells harbouring the subgenomic HCV replicon BM4-5 (J. T. Guo et al., J. Virol. 2001, 75: 8516-8523) were used in this study. Cells were maintained in Dulbecco's modified Eagle's medium high glucose 4.5 g/l (LifeTechnlogies) supplemented with 10% fetal bovine serum, 1% L-glutamine, 1% penicillin and streptomycin, 1% L-Pyruvate and 500 μg/ml of geneticien (G418, Invitrogen). Geneticin was used to select cells permitting the HCV RNA replication. Cells were passaged every four days with a 1:4 ratio.
Cells were seeded in 6-wells plates at a density of 2.5×10^5 cells per well, sixteen hours before the beginning of treatment. […] The administration of each drug was renewed every day for three consecutive days. Ribarivin (ICN Pharmaceuticals), mycophenolic acid (MPA, Sigma), and interferon alpha-2b (IntronA®)) were used in the same conditions as positive controls. The concentrations used for these drugs were respectively: 0; 0.5; 1; 2; 4; 8; 16; 32; 64; 128; 256 and 512 μM for ribavirin, 0; 2.5; 5; 10; 20; 40 μM for mycophenolic acid, and 0; 0.1; 1; 10; 100 and 1000 Ul/mL for IFN alpha-2b. Total RNA was extracted at the end of treatment (24 hours after the last day of treatment) with the <<Extract all>> reagent (Eurobio), which is a mix of phenol and guanidium thiocyanate. Northern blot analysis was then performed using the NorthernMax™-Gly kit (Ambion), following manufacturer's instructions. Five micrograms of total RNA were denaturated in glyoxal buffer at 50° C. for 30 minutes, separated by 1.1% agarose gel electrophoresis, and then transferred for 12 hours onto a charged nylon membrane (HybondN+, Amersham). Hybridization was carried out with three different [^32P]CTP-labelled riboprobes obtained by in vitro transcription (Riboprobe in vitro transcription system, Promega). Two probes were complementary to the NS5A region of the HCV genome of negative polarity and positive polarity. A third probe was complementary to the beta-actin mRNA and obtained by in vitro transcription from a specific plasmid (PTRI beta actin human, reference 7424, Ambion). First, the blot was hybridized with the riboprobes directed against the negative strand of HCV RNA and beta-actin mRNA, respectively. After one night of hybridization at 68° C., the membrane was washed, then exposed to X-ray film and a phosphor screen (phosphorimager). This screen was then scanned and quantitative analysis was achieved using ImageQuant software. The amount of beta-actin mRNA was used as an internal loading control to standardize the amount of HCV RNA detected. The same membrane was subsequently hybridized with the […] to determine the level of positive strand HCV RNA, suing the same approach.

The test system of data set [2] is Huh7 cells harbouring the subgenomic HCV replicon BM4-5. Description: Cell viability (neutral red) on the replicon system. It is filed as cell-based. As to conditions: neutral red test, drug renewed daily for three days, read-out: CC50, cytotoxicity on Replicon System. How it is done: as §1
(§2) For cell viability assays, cells were seeded in 96-well plates at a density of 12,500 cells per well. They were treated by the different molecules with the same concentrations and conditions than those used for the antiviral assays. Then, cell viability was measured by neutral red assay. Neutral red specifically colors lysosomes and its accumulation depends on cellular membrane integrity. The yield of neutral red incorporated in cells is proportional to the number of living cells. At the end of treatment, culture medium was removed; cells were washed by PBS, then coloured with neutral red at 0.005% for 3 hours at 37° C. Cells were then fixed 1 minute by formol calcium and lysed by atreatment with a vol/vol mixture of acetic acid and ethanol. After 15 minutes incubation, absorbance was read at 490 nm.
On the technique in general: In antiviral work, replicon cells carry a viral genome segment that copies itself.

A further data set deals with PBM cells. Description: Cytotoxicity against PBM cells. The class given is cell-based.
The next data set concerns CEM cells. Kind of data set: Cytotoxicity against CEM cells. The class given is cell-based.
For a further data set, the system named is VERO cells. Kind of data set: Cytotoxicity against VERO cells. It is filed as cell-based.
A short description of data set [3]: Cell viability (neutral red) on the replicon system. The conditions noted are these: human, Huh7 cells harbouring the subgenomic HCV replicon BM4-5, neutral red test, drug renewed daily for three days, read-out: CC50, cytotoxicity on Replicon System. The class given is cell-based. Here is the method: as §1, §2
Data set [4] is described as follows: Cytotoxicity against PBM cells. It is filed as cell-based. The conditions noted are these: human.
Data set [5] is described as follows: Cytotoxicity against CEM cells. As to conditions: human. The class given is cell-based.
Data set [6] in a line: Cytotoxicity against VERO cells. The class given is cell-based. The conditions noted are these: African green monkey.
Another data set has as its system BVDV strain NADL. Kind of data set: Antiviral assay on BVDV, inhibition of cytopathic effect in MDBK cells. The class given is cell-based. As to conditions: Bovine viral diarrhea virus isolates and strains, read-out: EC50 ECP inhibition (3rd day p.i.). Here is the method: Antiviral and cytotoxicity assays for BVDV. Noncytopathic-BVDV-free MDBK cells (European Collection of Animal Cell Cultures, Porton Down, U.K.) were kindly provided by Dr N. Zitzmann (Oxford University). Cells were propagated in DMEM F12 (Eurobio) supplemented with 10% horse serum (Life Technologies), 1% L-glutamin (Gibco), 1% penicillin ansd streptomycin (Gibco).
MDBK cells were seeded in microwell plates (96 wells) at a density of 1.10^5 cells per well, then infected with BVDV (strain NADL) (at dilution inducing 100%/o cytopathic effect three days post inoculation, i.e approximately 10 plaque forming units (pfu) per well at three days post infection) for one hour, at 37° C. After a wash with DMEM, infected cells were incubated for three days in the presence of absence of drug; each concentration of drug was added in 12 consecutive wells. The appearance of CPE was visually checked the third day post inoculation to evaluate the IC50 on BVDV (strain NADL), according to the different conditions of treatment.
(In general: Cytopathic effects are the visible damage that an infection or toxin causes in cultured cells.)

A short description of data set [7]: Cytotoxicity on uninfected MDBK cells (neutral red). The conditions noted are these: cattle (bovine). It is filed as cell-based. Here is the method:
as §2
Antiviral and cytotoxicity assays for BVDV. Noncytopathic-BVDV-free MDBK cells (European Collection of Animal Cell Cultures, Porton Down, U.K.) were kindly provided by Dr N. Zitzmann (Oxford University). Cells were propagated in DMEM F12 (Eurobio) supplemented with 10% horse serum (Life Technologies), 1% L-glutamin (Gibco), 1% penicillin ansd streptomycin (Gibco). The NADL cytopathic (CP) BVDV strain was obtained from ATCC: VR-504.
Uninfected MDBK cells were grown in the absence or presence of varying concentrations of drug tested. After 3 days, toxicity was evaluated by neutral red coloration as described above.

Where [8] appears, read: Huh7 BM4-5 replicon, positive strand HCV RNA by Northern blot, three days treatment.
Setting [9] is: Hepatitis C virus, 72 h, Huh7 BM4-5 replicon, positive strand HCV RNA by Northern blot, three days treatment.

Like-named read-outs stand apart in the source and are kept apart here.

As a reminder, the IC50 is the concentration at which inhibition is half-maximal. Usually IC90 stands for the concentration at which the effect reaches the 90% level. In general, CC50 refers to the concentration giving 50% cytotoxicity. What is called melting point is the temperature, or range, at which the solid turns liquid. One may read the EC50 as the concentration giving half of the maximal effect.

Regarding `O=c1[nH]c(=O)n([C@@H]2O[C@H](CO)[C@@H](O)[C@H]2O)cc1/C(Cl)=C\I` [Compound 16b, (E)-5-(l-Chloro-2-iodovinyl)-uridine], the IC50 in data set [1] (setting [8]) amounted to 74.9 µM. Further, in data set [1] (setting [8]), the IC90 was over 250 µM. The CC50 in [2] was over 200 µM; with PBM cells it was over 100 µM; with CEM cells it was over 100 µM; in the data set with VERO cells, over 100 µM.
`O=c1[nH]c(=O)n([C@H]2C[C@H](O)[C@@H](CO)O2)cc1C#CI` [Compound 12a, 5-(2-Iodoethynyl)-2′-deoxyuridine] yielded a melting point of 135 to 137 °C. In [1] (setting [9]), the IC50 stood at 57.1 µM and the IC90 is over 239 µM. Further, in data set [1], the “Selectivity Index (SI), ratio between CC50 and IC50” value is recorded as over 3.2. Besides, the CC50 at 3 days in [3] is over 182 µM. In [4], this molecule had a CC50 of 7.5 µM. In data set [5], this molecule gave a CC50 of 15.8 µM. Further, the CC50 in data set [6] is over 100 µM.
In turn, `O=c1[nH]c(=O)n([C@@H]2O[C@H](CO)[C@@H](O)[C@H]2O)cc1/C(I)=C\I` [Compound 14b, (E)-5-(1,2-Diiodovinyl)-uridine] registered a melting point of 107 to 109 °C. Further, in data set [1] (setting [9]), the IC50 was determined as 162 µM and the IC90 was over 250 µM. In addition, the “Selectivity Index (SI), ratio between CC50 and IC50” value in [1] is reported as over 1.5. Besides, the CC50 at 3 days in [3] is over 250 µM. Also, the 50% cytotoxic concentration (CC50) in data set [4] was over 100 µM. In addition, the CC50 in [5] was 41.7 µM. Moreover, in data set [6], half-maximal cytotoxicity (CC50) was put at 49.5 µM.
Regarding `O=c1[nH]c(=O)n([C@@H]2O[C@H](CO)[C@@H](O)[C@H]2O)cc1C#CBr` [Compound 13b, 5-(2-bromoethynyl)-uridine], the IC50 in data set [1] (setting [9]) is 58 µM. In [1] (setting [9]), the IC90 was over 200 µM. Besides, the “Selectivity Index (SI), ratio between CC50 and IC50” value in data set [1] was 3.2. In addition, the values for the CC50 at 3 days in [3] and in data set [7] were 188 µM and over 100 µM, respectively. The 50% cytotoxic concentration (CC50) in data set [4], in data set [5] and in [6] was over 100 µM in each case. Moreover, the EC50 in the data set with BVDV strain NADL was over 100 µM.
As for `O=c1[nH]c(=O)n([C@@H]2O[C@H](CO)C[C@H]2O)cc1/C(Br)=C\I` [Compound 15c, (E)-5-(1-Bromo-2-iodovinyl)-3′-deoxyuridine], in data set [1] (setting [9]), the IC50 is over 200 µM. Also, in data set [1] (setting [9]), the IC90 was over 200 µM. In data set [1], the “Selectivity Index (SI), ratio between CC50 and IC50” value is “≦1”. The figures for the CC50 at 3 days in data set [3] and in data set [7] were over 200 µM and over 100 µM, respectively. Also, the CC50 is 71.5 µM in data set [4], 79.3 µM in data set [5] and over 100 µM in [6]. Also, the concentration giving a half-maximal response (EC50) in the data set on BVDV strain NADL is over 100 µM.
With `O=c1[nH]c(=O)n([C@H]2C[C@H](O)[C@@H](CO)O2)cc1/C(I)=C\I` [Compound 14a, (E)-5-(1,2-Diiodovinyl)-2′-deoxyuridine], the melting point lay in the range of 103 to 105 °C. In [1] (setting [9]), the IC50 is over 161 µM and the IC90 was over 263 µM. In addition, in data set [1], the “Selectivity Index (SI), ratio between CC50 and IC50” value is on record as under 1. The CC50 at 3 days in [3] stood at 76.7 µM. This molecule had a CC50 in data set [4] of 14.7 µM. Further, the CC50 in data set [5] stood at 19.5 µM. For the same molecule, in data set [6], the CC50 was determined as 19.5 µM.
In the case of `NC(=O)c1ncn([C@@H]2O[C@H](CO)[C@@H](O)[C@H]2O)n1` [Ribavirin, 1-β-D-ribofuranosyl-1,2,4-triazole-3-carboxamide, reference compound], in [1] (Hepatitis C virus, 72 h), the IC50 came to 170 µM. Moreover, the IC90 in data set [1] (setting [9]) was over 512 µM. The “Selectivity Index (SI), ratio between CC50 and IC50” value in data set [1] is under 1. Further, the values for the CC50 at 3 days in data set [3] and in [7] were 110 µM and over 100 µM, respectively. The EC50 with BVDV strain NADL was found to be 36 µM.

These data come from patent US20090004137A1, “Uridine Derivatives as Antiviral Drugs Against a Flaviviridae, Especially Hcv” (priority 2004, published 2009).
